≈ marks a conversion by molar mass, not a printed value.
How the values were obtained:
Test in all cases: Antibacterial MIC, standard microtitration
Format in all cases: cell-based
E. Coli MC4100 = conditions: Escherichia coli, Gram negative, read-out: Minimum Inhibitory Concentrations
Method: (§1) The compounds of the present invention were tested against an assortment of gram positive and gram negative organisms using standard microtitration techniques (Cohen, et. al. Antimicrobial Agents Chemother. 1985, 28, 766; Heifetz, et. al. Antimicrobial Agents Chemother. 1974, 6, 124) and the results are given in Table 1.

B. subtilis RB1 = conditions: Bacillus subtilis, Gram positive, read-out: Minimum Inhibitory Concentrations
Method: as §1

S. aureus 29213 = conditions: Staphylococcus aureus, Gram positive, read-out: Minimum Inhibitory Concentrations
Method: as §1

S. pyogenes C203 = conditions: Streptococcus pyogenes, Gram positive, read-out: Minimum Inhibitory Concentrations
Method: as §1

E. coli Tol C = conditions: Escherichia coli, read-out: Minimum Inhibitory Concentrations
Method: as §1

E. coli B90 = conditions: Escherichia coli, Gram negative, read-out: Minimum Inhibitory Concentrations
Method: as §1

Compound `CCCc1c(OC(C)=O)cc2oc3cc(Cl)cn3c(=O)c2c1OC(C)=O` [Example 13, 6,8-Bis(acetyloxy)-2-chloro-7-propyl-9H-pyrrolo [2,1-b][1,3]benzoxazin-9-one] has an MIC (E. Coli MC4100) of over 64 µg/mL, an MIC (B. subtilis RB1) of 8 µg/mL (≈ 21.2 µM) and an MIC (S. aureus 29213) of 4 µg/mL (≈ 10.6 µM). It also gave an MIC (S. pyogenes C203) of 4 µg/mL (≈ 10.6 µM), an MIC (E. coli Tol C) of 8 µg/mL (≈ 21.2 µM) and an MIC (E. coli B90) of 64 µg/mL (≈ 169 µM).

With `CCCc1c(O)cc2oc3cccn3c(=O)c2c1O` [Example 6, 6,8-Dihydroxy-7-propyl-9H-pyrrolo[2,1-b][1,3]benzoxazin-9-one] the MIC (E. Coli MC4100) was over 64 µg/mL, the MIC (B. subtilis RB1) was 4 µg/mL (≈ 15.4 µM) and the MIC (S. aureus 29213) was 2 µg/mL (≈ 7.71 µM). For the same compound, the MIC (S. pyogenes C203) was 4 µg/mL (≈ 15.4 µM), the MIC (E. coli Tol C) was 2 µg/mL (≈ 7.71 µM) and the MIC (E. coli B90) was 4 µg/mL (≈ 15.4 µM).

`CCCc1c(O)cc2oc3cc(Cl)c(C=NO)n3c(=O)c2c1O` [Example 10, 2-Chloro-6,8-dihydroxy-9-oxo-7-propyl-9H-pyrrolo[2,1-b][1,3]benzoxazine-1-carboxaldehyde, oxime] was tested, and the MIC (E. Coli MC4100) was over 64 µg/mL, the MIC (B. subtilis RB1) was 32 µg/mL (≈ 95 µM) and the MIC (S. aureus 29213) was 32 µg/mL (≈ 95 µM). For the same compound, the MIC (S. pyogenes C203) was 16 µg/mL (≈ 47.5 µM), the MIC (E. coli Tol C) was 8 µg/mL (≈ 23.8 µM) and the MIC (E. coli B90) was over 64 µg/mL.

In the case of `CCCc1c(O)cc2oc3cc(Cl)c(C=O)n3c(=O)c2c1O` [Example 9, 2-Chloro-6,8-dihydroxy-9-oxo-7-propyl-9H-pyrrolo[2,1-b][1,3]benzoxazine-1-carboxaldehyde], the MIC (E. Coli MC4100) is reported as over 64 µg/mL, the MIC (B. subtilis RB1) is reported as 1 µg/mL (≈ 3.11 µM) and the MIC (S. aureus 29213) is reported as 4 µg/mL (≈ 12.4 µM). It also gave an MIC (S. pyogenes C203) of 4 µg/mL (≈ 12.4 µM), an MIC (E. coli Tol C) of 2 µg/mL (≈ 6.22 µM) and an MIC (E. coli B90) of 4 µg/mL (≈ 12.4 µM).

Reference: patent US6057315A, “Antibacterial agents” (Warner-Lambertt Company, priority 1999, dated 2000)
